The text below walks through data of ChEMBL document CHEMBL5523691, “SAR study of N'-(Salicylidene)heteroarenecarbohydrazides as promising antifungal agents” (Bioorg Med Chem, 2024).

Data set [1] has as its system Cryptococcus neoformans. Kind of data set: Antifungal activity against wild type Cryptococcus neoformans H99 assessed as inhibition of fungal growth incubated for 24 to 72 hrs by optical density based analysis. The data set is classed as functional. The following applies: time 24-72 hrs.
For data set [2], the system named is Cryptococcus neoformans. Kind of data set: Fungicidal activity against wild type Cryptococcus neoformans H99 assessed as minimum concentration required to kill fungus measured after 24 hrs by time-kill assay. The data set is classed as functional.
A short description of data set [3]: Cytotoxicity against human A549 cells assessed as cell killing measured after 24 to 48 hrs by MTT assay. The data set is classed as toxicity, cell-based. Particulars: time 24-48 hrs, read-out: LD50 (the source's name). A general note: Tetrazolium dyes change colour on reduction, which living cells bring about.
Data set [4] is described as follows: Selectivity index, ratio of LD50 for human A549 cells to MIC80 for Cryptococcus neoformans H99. The following applies: read-out: Selectivity Index. The data set is classed as toxicity.
Data set [5] relates to Cryptococcus neoformans. The data set can be described thus: Fungistatic activity against wild type Cryptococcus neoformans H99 assessed as inhibition of fungal growth incubated for 12 to 48 hrs by time-kill assay. The data set is classed as functional, organism-based. Particulars: time 12-48 hrs.
Data set [6] concerns Cryptococcus neoformans. Kind of data set: Fungicidal activity against wild type Cryptococcus neoformans H99 assessed as minimum concentration required to kill fungus measured after 48 hrs by time-kill assay. The data set is classed as functional.

In brackets after ≈: the same amount, converted by molar mass. Activity calls are given as the source filed them. No cut-off for these calls is given here. Some results are limits rather than exact numbers.

In general, MIC80 refers to the lowest concentration that inhibits either 80% of growth or 80% of the strains tested, depending on the study. Consider `O=C(N/N=C/c1cc(Br)cc(Br)c1O)c1ccco1`, for which, in the data set on Cryptococcus neoformans [1], the MIC80 was 8 µg/mL (≈ 20.6 µM). Still for that read-out and setting: next, `O=C(N/N=C/c1cc(Br)cc(Br)c1O)c1cc[nH]c1`: 2 µg/mL (≈ 5.17 µM).

For `O=C(N/N=C/c1c(O)ccc2ccccc12)c1ccc(C(F)(F)F)s1`, in the data set with Cryptococcus neoformans [1], the MIC80 is 0.007 µg/mL (≈ 0.0192 µM). In addition, the MFC100 with Cryptococcus neoformans [2] came out at 0.25 µg/mL (≈ 0.686 µM). Besides, in data set [3], the CC50 was determined as 0.12 µg/mL (≈ 0.329 µM). Also, the selectivity ratio in data set [4] came to 17.1. `O=C(N/N=C/c1ccc(Br)cc1O)c1ccco1`: the MIC80 with Cryptococcus neoformans [1] stood at 2 µg/mL (≈ 6.47 µM). Take `O=C(N/N=C/c1cc(Br)ccc1O)c1cc(Br)co1`: the MIC80 in the data set with Cryptococcus neoformans [1] came out at 0.25 µg/mL (≈ 0.644 µM). Besides, in the data set on Cryptococcus neoformans [5], the outcome was Active. Besides, the CC50 in data set [3] came out at 16 µg/mL (≈ 41.2 µM). Moreover, the selectivity ratio in data set [4] turned out to be 64. For `O=C(N/N=C/c1c(O)ccc2ccccc12)c1cncc(Br)c1`, the MIC80 with Cryptococcus neoformans [1] was 0.25 µg/mL (≈ 0.675 µM). Moreover, the MFC100 in the data set on Cryptococcus neoformans [6] worked out at 2 µg/mL (≈ 5.4 µM). In addition, in data set [3], the CC50 came out at 2 µg/mL (≈ 5.4 µM). Further, in data set [4], the selectivity ratio was 8.

Regarding `O=C(N/N=C/c1cc(Br)cc(Br)c1O)c1cc2ccccc2cn1`, in the data set with Cryptococcus neoformans [1], the MIC80 is above 16 µg/mL.

`O=C(N/N=C/c1cc(Br)ccc1O)c1nc2cc(Br)ccc2[nH]1`: the MIC80 in the data set with Cryptococcus neoformans [1] was above 16 µg/mL. Still for that read-out and setting: the result for `O=C(N/N=C/c1cc(Br)ccc1O)c1cc(Br)c[nH]1` reads above 16 µg/mL; that for `O=C(N/N=C/c1c(O)ccc2ccccc12)c1cc[nH]c1`, above 16 µg/mL. Turning to `O=C(N/N=C/c1cc(Br)cc(Br)c1O)c1ccc(Br)o1`, the MIC80 in the data set with Cryptococcus neoformans [1] amounted to 0.06 µg/mL (≈ 0.129 µM). For the same compound, the outcome with Cryptococcus neoformans [5] was Active. In data set [3], the CC50 came out at 16 µg/mL (≈ 34.3 µM). Moreover, in data set [4], the selectivity ratio worked out at 267.

With `O=C(N/N=C/c1c(O)ccc2ccccc12)c1ncc(Br)cn1`, the MIC80 in the data set on Cryptococcus neoformans [1] came out at 2 µg/mL (≈ 5.39 µM).

With `O=C(N/N=C/c1c(O)ccc2ccccc12)c1cc[nH]n1`, the MIC80 with Cryptococcus neoformans [1] was found to be 4 µg/mL (≈ 14.3 µM). Same read-out and setting: next, `O=C(N/N=C/c1cc(Br)cc(Br)c1O)c1cc(Br)c[nH]1`: 4 µg/mL (≈ 8.59 µM). `O=C(N/N=C/c1ccc(Br)cc1O)c1csc(Br)c1`: the MIC80 in the data set on Cryptococcus neoformans [1] stood at 0.25 µg/mL (≈ 0.619 µM). The MFC100 in the data set with Cryptococcus neoformans [2] stood at 0.5 µg/mL (≈ 1.24 µM). For the same compound, the CC50 in data set [3] was above 32 µg/mL. Moreover, in data set [4], the selectivity ratio is above 128. Consider `O=C(N/N=C/c1cc(Br)cc(Br)c1O)c1cc2cc(Br)ccc2cn1`, for which the MIC80 in the data set on Cryptococcus neoformans [1] was above 16 µg/mL. As for `O=C(N/N=C/c1ccc(Br)cc1O)c1cc(Br)c(Br)o1`, in the data set on Cryptococcus neoformans [1], the MIC80 amounted to 0.06 µg/mL (≈ 0.129 µM). The result in the data set on Cryptococcus neoformans [5] was Active. In data set [3], the CC50 was 16 µg/mL (≈ 34.3 µM). Further, the selectivity ratio in data set [4] came to 267. With `O=C(N/N=C/c1cc(Br)cc(Br)c1O)c1ncc(Br)cn1`, in the data set on Cryptococcus neoformans [1], the MIC80 was 0.25 µg/mL (≈ 0.522 µM). The outcome in the data set with Cryptococcus neoformans [5] was Active. `O=C(N/N=C/c1ccc(Br)cc1O)c1cccs1`: the MIC80 in the data set on Cryptococcus neoformans [1] turned out to be 4 µg/mL (≈ 12.3 µM).

With `O=C(N/N=C/c1cc(Br)cc(Br)c1O)c1csc2ccccc12`, the MIC80 in the data set on Cryptococcus neoformans [1] was above 16 µg/mL. Still for that read-out and setting: the result for `O=C(N/N=C/c1ccc(Br)cc1O)c1cc(Br)c[nH]1` reads 8 µg/mL (≈ 20.7 µM). On to `O=C(N/N=C/c1c(O)ccc2ccccc12)c1cc(Br)c(Br)s1`, for which the MIC80 in the data set with Cryptococcus neoformans [1] was found to be 16 µg/mL (≈ 35.2 µM).

Take `O=C(N/N=C/c1cc(Br)cc(Br)c1O)c1ccc(C(F)(F)F)o1`: the MIC80 in the data set with Cryptococcus neoformans [1] came to 2 µg/mL (≈ 4.39 µM).

Consider `O=C(N/N=C/c1c(O)ccc2ccccc12)c1cc(Br)c[nH]1`, for which the MIC80 with Cryptococcus neoformans [1] is above 16 µg/mL.

Take `O=C(N/N=C/c1cc(Br)ccc1O)c1cccs1`: the MIC80 with Cryptococcus neoformans [1] worked out at 8 µg/mL (≈ 24.6 µM). Still for that read-out and setting: next, `O=C(N/N=C/c1cc(Br)ccc1O)c1ccc[nH]1`: 16 µg/mL (≈ 51.9 µM). With `O=C(N/N=C/c1ccc(Br)cc1O)c1cc[nH]c1`, the MIC80 in the data set with Cryptococcus neoformans [1] worked out at 4 µg/mL (≈ 13 µM).

As for `O=C(N/N=C/c1cc(Br)ccc1O)c1cc2ccccc2cn1`, in the data set with Cryptococcus neoformans [1], the MIC80 was above 16 µg/mL. With `O=C(N/N=C/c1c(O)ccc2ccccc12)c1ccco1`, the MIC80 in the data set on Cryptococcus neoformans [1] was above 16 µg/mL. Same read-out and setting: the result for `O=C(N/N=C/c1cc(Br)cc(Br)c1O)c1cncc(Br)c1` reads above 16 µg/mL. On to `O=C(N/N=C/c1ccc(Br)cc1O)c1cncc(Br)c1`, for which the MIC80 with Cryptococcus neoformans [1] amounted to 1 µg/mL (≈ 2.51 µM). Moreover, in the data set on Cryptococcus neoformans [5], the outcome was Active. In addition, the CC50 in data set [3] is above 32 µg/mL. In addition, the selectivity ratio in data set [4] amounted to 64. For `O=C(N/N=C/c1cc(Br)ccc1O)c1cncc(Br)c1`, in that order: 1 µg/mL (≈ 2.51 µM), “Active”, 4 µg/mL (≈ 10 µM) and 4. Regarding `O=C(N/N=C/c1cc(Br)ccc1O)c1cc2cc(Br)ccc2o1`, in the data set on Cryptococcus neoformans [1], the MIC80 is above 16 µg/mL.

In the case of `O=C(N/N=C/c1cc(Br)ccc1O)c1ncc(Br)cn1`, the MIC80 with Cryptococcus neoformans [1] was above 16 µg/mL. Consider `O=C(N/N=C/c1cc(Br)cc(Br)c1O)c1cc[nH]n1`, for which, in the data set with Cryptococcus neoformans [1], the MIC80 was found to be 4 µg/mL (≈ 10.3 µM).

Turning to `O=C(N/N=C/c1cc(Br)ccc1O)c1cc(Br)c(Br)o1`, in the data set on Cryptococcus neoformans [1], the MIC80 turned out to be 0.25 µg/mL (≈ 0.535 µM). In addition, the MFC100 with Cryptococcus neoformans [6] stood at 0.5 µg/mL (≈ 1.07 µM). Further, the CC50 in data set [3] is 32 µg/mL (≈ 68.5 µM).

As to `O=C(N/N=C/c1c(O)ccc2ccccc12)c1cc(Br)co1`, the MIC80 in the data set on Cryptococcus neoformans [1] is above 16 µg/mL. On the same count and under the same terms, next, `O=C(N/N=C/c1ccc(Br)cc1O)c1ncc(Br)cn1`: above 16 µg/mL. With `O=C(N/N=C/c1c(O)ccc2ccccc12)c1cc(Br)c(Br)o1`, in the data set with Cryptococcus neoformans [1], the MIC80 is 0.12 µg/mL (≈ 0.274 µM). Also, in the data set on Cryptococcus neoformans [5], the outcome was Active. Besides, in data set [3], the CC50 came out at 32 µg/mL (≈ 73 µM). In data set [4], the selectivity ratio was determined as 267. On to `O=C(N/N=C/c1cc(Br)ccc1O)c1ccc(C(F)(F)F)s1`, for which the MIC80 in the data set on Cryptococcus neoformans [1] was 0.007 µg/mL (≈ 0.0178 µM). For the same compound, the MFC100 in the data set with Cryptococcus neoformans [2] worked out at 0.25 µg/mL (≈ 0.636 µM). The CC50 in data set [3] was 1 µg/mL (≈ 2.54 µM). In addition, in data set [4], the selectivity ratio came out at 143.

Consider `O=C(N/N=C/c1cc(Br)cc(Br)c1O)c1cccs1`, for which the MIC80 with Cryptococcus neoformans [1] came out at 4 µg/mL (≈ 9.9 µM). Still for that read-out and setting: next, `O=C(N/N=C/c1cc(Br)ccc1O)c1csc2ccccc12`: above 16 µg/mL. On the same count and under the same terms, the result for `Cc1ccc2c(C)c(C(=O)N/N=C/c3cc(Br)cc(Br)c3O)oc2c1` reads above 16 µg/mL. As for `O=C(N/N=C/c1cc(Br)cc(Br)c1O)c1cc(Br)co1`, in the data set on Cryptococcus neoformans [1], the MIC80 was found to be 0.06 µg/mL (≈ 0.129 µM). For the same compound, in the data set on Cryptococcus neoformans [5], the outcome was Active. The CC50 in data set [3] worked out at 16 µg/mL (≈ 34.3 µM). Also, the selectivity ratio in data set [4] is 267. `O=C(N/N=C/c1ccc(Br)cc1O)c1cc[nH]n1`: the MIC80 with Cryptococcus neoformans [1] worked out at 2 µg/mL (≈ 6.47 µM).

For the compound `O=C(N/N=C/c1cc(Br)ccc1O)c1ccc(C(F)(F)F)o1`, the MIC80 with Cryptococcus neoformans [1] turned out to be 2 µg/mL (≈ 5.3 µM). In the case of `O=C(N/N=C/c1ccc(Br)cc1O)c1ccc(C(F)(F)F)s1`, in the data set on Cryptococcus neoformans [1], the MIC80 amounted to 0.06 µg/mL (≈ 0.153 µM). Besides, in the data set with Cryptococcus neoformans [2], the MFC100 was 0.5 µg/mL (≈ 1.27 µM). The CC50 in data set [3] was 0.5 µg/mL (≈ 1.27 µM). Moreover, in data set [4], the selectivity ratio came to 8.3. Turning to `O=C(N/N=C/c1cc(Br)ccc1O)c1cc(Br)c(Br)s1`, in the data set on Cryptococcus neoformans [1], the MIC80 is 0.12 µg/mL (≈ 0.248 µM). In the data set with Cryptococcus neoformans [2], the MFC100 was found to be 0.25 µg/mL (≈ 0.518 µM). Also, the CC50 in data set [3] was found to be 32 µg/mL (≈ 66.3 µM). In addition, in data set [4], the selectivity ratio came out at 267. For the compound `O=C(N/N=C/c1cc(Br)cc(Br)c1O)c1ncc[nH]1`, the MIC80 in the data set on Cryptococcus neoformans [1] is 2 µg/mL (≈ 5.15 µM).

Turning to `O=C(N/N=C/c1cc(Br)ccc1O)c1cc[nH]c1`, the MIC80 with Cryptococcus neoformans [1] is 4 µg/mL (≈ 13 µM). Turning to `O=C(N/N=C/c1cc(Br)ccc1O)c1cc2cc(Br)ccc2cn1`, in the data set with Cryptococcus neoformans [1], the MIC80 was above 16 µg/mL. Still for that read-out and setting: next, `O=C(N/N=C/c1cc(Br)ccc1O)c1ccco1`: 2 µg/mL (≈ 6.47 µM); `O=C(N/N=C/c1ccc(Br)cc1O)c1ccc[nH]1`: 2 µg/mL (≈ 6.49 µM).

On to `O=C(N/N=C/c1cc(Br)cc(Br)c1O)c1cc2cc(Br)ccc2o1`, for which the MIC80 in the data set with Cryptococcus neoformans [1] was above 16 µg/mL.

Take `O=C(N/N=C/c1cc(Br)ccc1O)c1cc[nH]n1`: the MIC80 in the data set on Cryptococcus neoformans [1] was found to be 4 µg/mL (≈ 12.9 µM). Regarding `O=C(N/N=C/c1cc(Br)cc(Br)c1O)c1ccc[nH]1`, the MIC80 with Cryptococcus neoformans [1] was 2 µg/mL (≈ 5.17 µM).

In the case of `Cc1ccc2c(C)c(C(=O)N/N=C/c3cc(Br)ccc3O)oc2c1`, the MIC80 in the data set with Cryptococcus neoformans [1] is above 16 µg/mL.
